Measured values published in ChEMBL document CHEMBL4043063, “Anti-tuberculosis activity and structure-activity relationships of oxygenated tricyclic carbazole alkaloids and synthetic derivatives” (Bioorg Med Chem, 2017).
In brackets after ≈: the same amount, converted by molar mass.

Experiments:
[1] = test system: Mycobacterium tuberculosis; test: Antitubercular activity against Mycobacterium tuberculosis H37Rv by microplate alamar blue assay; format: functional
Vero = test: Cytotoxicity against African green monkey Vero cells assessed as reduction in cell viability after 72 hrs by tetrazolium dye assay; format: cell-based; conditions: Chlorocebus sabaeus
[2] = Selectivity index, ratio of IC50 for African green monkey Vero cells to MIC90 for Mycobacterium tuberculosis H37Rv; format: toxicity; conditions: read-out: Selectivity Index

Row | Compound | MIC90 [1] [µM] | IC50 (Vero) [µM] | selectivity ratio [2]
1 | Cc1cc2c(cc1O)[nH]c1ccccc12 | 41.5 (≈ 8.19 µg/mL) | – | –
2 | COc1ccc2c([nH]c3cc(O)c(C)cc32)c1C=O | > 50 | – | –
3 | COc1ccc2[nH]c3c(O)cc(C=O)cc3c2c1 | 6.9 (≈ 1.66 µg/mL) | > 50 | > 7.2
4 | O=C(O)c1cc2c([nH]c3ccccc32)c(-c2c[nH]c3ccccc23)c1O | > 50 | – | –
5 | CCCCCCCc1c(C)c(OC)c(OC)c2c1[nH]c1ccccc12 | 6.2 (≈ 2.1 µg/mL) | > 50 | > 8.1
6 | COc1ccc2[nH]c3c(OC)cc(C)cc3c2c1 | 45.1 (≈ 10.9 µg/mL) | – | –
7 | Cc1ccc(S(=O)(=O)Oc2cc(C)cc3c2[nH]c2cc(O)ccc23)cc1 | 19.7 (≈ 7.24 µg/mL) | – | –
8 | COC(=O)c1cc2c(cc1OC)[nH]c1ccc(OC)cc12 | 24.4 (≈ 6.96 µg/mL) | – | –
9 | COC(=O)c1cc2c(cc1O)[nH]c1ccc(O)cc12 | 29.1 (≈ 7.49 µg/mL) | – | –
10 | COc1cc2[nH]c3cc(O)ccc3c2cc1C=O | 36.7 (≈ 8.85 µg/mL) | – | –
11 | COc1cc2[nH]c3c(C=O)c(OC)ccc3c2cc1C | > 50 | – | –
12 | Cc1cc2c(cc1OCc1ccccc1)[nH]c1ccccc12 | > 50 | – | –
13 | O=Cc1cc2c(cc1O)[nH]c1c(O)cccc12 | 3.7 (≈ 0.841 µg/mL) | > 50 | > 13
14 | COc1cccc2c1[nH]c1cc(O)c(C)cc12 | > 50 | – | –
15 | C#CC(C)(C)Oc1ccc2c(c1)[nH]c1c(OS(=O)(=O)c3ccc(C)cc3)cc(C)cc12 | 20.8 (≈ 9.02 µg/mL) | – | –
16 | COC(=O)c1cc2c(cc1O)[nH]c1cc(OC)ccc12 | 47.8 (≈ 13 µg/mL) | – | –
17 | COc1ccc2c([nH]c3c(OC)cc(C)cc32)c1OC | 46.9 (≈ 12.7 µg/mL) | – | –
18 | CC(C)=CCc1ccc2[nH]c3ccccc3c2c1 | 22.6 (≈ 5.32 µg/mL) | – | –
19 | COc1ccc2[nH]c3cc(O)c(C)cc3c2c1 | 1.5 (≈ 0.341 µg/mL) | > 50 | > 33
20 | COc1cc2[nH]c3ccccc3c2cc1C(=O)O | > 50 | – | –
21 | COc1ccc2[nH]c3c(OC)cc(C=O)cc3c2c1 | > 50 | – | –
22 | CC(C)=CCc1c(O)ccc2c1[nH]c1c(OS(=O)(=O)c3ccc(C)cc3)cc(C)cc12 | 19.4 (≈ 8.45 µg/mL) | – | –
23 | CC(C)=CC(=O)Oc1ccc2c(c1)[nH]c1c(OS(=O)(=O)c3ccc(C)cc3)cc(C)cc12 | 6.2 (≈ 2.79 µg/mL) | > 50 | > 8.1
24 | COC(=O)c1cc2c([nH]c3ccccc32)c(-c2cn(S(=O)(=O)c3ccccc3)c3ccccc23)c1O | 2.9 (≈ 1.44 µg/mL) | > 50 | > 17.2
25 | CC(C)=CCC/C(C)=C/Cc1c(O)c(C=O)cc2c1[nH]c1ccccc12 | 24.1 (≈ 8.37 µg/mL) | – | –
26 | O=C(O)c1cc2c(cc1O)[nH]c1ccc(O)cc12 | > 50 | – | –

Row | Compound | MIC90 [1] [µM] | IC50 (Vero) [µM] | selectivity ratio [2]
27 | COc1ccc2c([nH]c3c(O)cc(C)cc32)c1CC=C(C)C | 23.1 (≈ 6.82 µg/mL) | – | –
28 | Cc1cc2c(cc1OCc1ccccc1)[nH]c1c(O)cccc12 | 11.8 (≈ 3.58 µg/mL) | 33.7 | 2.9
29 | COc1ccc2c(c1)[nH]c1c(Cc3ccccc3)c(O)c(C=O)cc12 | 14.4 (≈ 4.77 µg/mL) | 74.1 | 5.1
30 | COc1cccc2[nH]c3cc(OCc4ccccc4)c(C)cc3c12 | 9.3 (≈ 2.95 µg/mL) | > 50 | > 5.4
31 | COC(=O)c1cc2c([nH]c3ccccc32)c(I)c1O | 24.6 (≈ 9.03 µg/mL) | – | –
32 | COc1cccc2c1[nH]c1cc(O)c(C=O)cc12 | 29.3 (≈ 7.07 µg/mL) | – | –
33 | COC(=O)c1cc(OC)c2[nH]c3ccc(OC)cc3c2c1 | 46.7 (≈ 13.3 µg/mL) | – | –
34 | CC(C)=CCC/C(C)=C/Cc1c(O)ccc2c1[nH]c1c(OS(=O)(=O)c3ccc(C)cc3)cc(C)cc12 | 20.5 (≈ 10.3 µg/mL) | – | –
35 | C=CC(C)(C)c1ccc2[nH]c3ccccc3c2c1 | 11 (≈ 2.59 µg/mL) | > 50 | > 4.5
36 | COc1ccc2c([nH]c3cc(O)c(C=O)cc32)c1C=O | 2.8 (≈ 0.754 µg/mL) | 47.1 | 16.8
37 | CC(C)=CCc1c(O)ccc2c1[nH]c1cc(O)c(C)cc12 | 29.4 (≈ 8.27 µg/mL) | – | –
38 | CC(C)=CCc1c(O)c(C)cc2c1[nH]c1ccccc12 | 11.1 (≈ 2.95 µg/mL) | > 50 | > 4.5
39 | COc1ccc2c(c1)[nH]c1cc(O)c(C=O)cc12 | 24.3 (≈ 5.86 µg/mL) | – | –
40 | COc1ccc2c(c1)[nH]c1c(CC=C(C)C)c(O)c(C=O)cc12 | 20.6 (≈ 6.37 µg/mL) | – | –
41 | COc1ccc2c([nH]c3cc(O)c(C)cc32)c1CC=C(C)C | 11.9 (≈ 3.52 µg/mL) | > 50 | > 4.2
42 | COc1ccc2c(c1)[nH]c1cc(O)c(C)cc12 | > 50 | – | –
43 | COC1=C(C)C(=O)c2[nH]c3ccccc3c2C1=O [3-METHOXY-2-METHYLCARBAZOLE-1,4-QUINONE] | 4 (≈ 0.965 µg/mL) | > 50 | > 12.5
44 | COc1c(C)c(C[C@@H](C)O)c2[nH]c3ccc(CC=C(C)C)cc3c2c1O [(R)-(-)-NEOCARAZOSTATIN B] | 34.5 (≈ 12.2 µg/mL) | – | –
45 | COC(=O)c1cc2c(cc1OC)[nH]c1ccccc12 [CLAUSINE L] | > 50 | – | –
46 | COc1cc2[nH]c3ccccc3c2cc1C=O [GLYCOSININE] | 39.6 (≈ 8.92 µg/mL) | – | –
47 | COc1ccc2[nH]c3cc(OC)c(C=O)cc3c2c1 [GLYCOZOLIDAL] | > 50 | – | –
48 | COc1ccc2[nH]c3cc(OC)c(C)cc3c2c1 [GLYCOZOLIDINE] | > 50 | – | –
49 | CC(C)=CCc1c(O)c(C=O)cc2c1[nH]c1ccccc12 [HEPTAPHYLLINE] | > 50 | – | –
50 | NNC(=O)c1ccncc1 [ISONIAZID] | 0.24 (≈ 0.0329 µg/mL) | > 50 | > 208
51 | COC(=O)c1cc2c(cc1O)[nH]c1ccccc12 [MUKONIDINE] | 23.3 (≈ 5.62 µg/mL) | – | –
52 | CO[C@H]1/C=C/O[C@@]2(C)Oc3c(C)c(O)c4c(O)c(c(/C=N/N5CCN(C)CC5)c(O)c4c3C2=O)NC(=O)/C(C)=C\C=C\[C@H](C)[C@H](O)[C@@H](C)[C@@H](O)[C@@H](C)[C@H](OC(C)=O)[C@@H]1C [RIFAMPIN] | 0.02 (≈ 0.0165 µg/mL) | > 50 | > 2500
